Measurements as given in patent US20060205071A1, “Methods for ex-vivo expanding stem/progenitor cells” (priority 2003, published 2006).
“Also recorded” adds a separate entry of the source.

Assays:
[1] = tested on: cord-blood-derived, bone marrow-derived, and peripheral blood derived stem and progenitor cells; settings: grown without a feeder layer; cited from earlier work
[2] = tested on: Hematopoietic stem/progenitor cells isolated from umbilical cord blood; experiment: Long Term Culture-Colony Forming Cell (LTC-CFC) assay of bag-cultured HSC; type: cell-based, human
Protocol: FIGS. 1A-1C are a graphic representation of the ex-vivo expansion and inhibition of differentiation of stem cells in a static bioreactor. Hematopoietic stem/progenitor cells isolated from umbilical cord blood (UCB) mononuclear cells by magnetic activated cell sorting (MACS technology, Milteny, Bergisch-Gladbach, GmbH) were seeded in static bioreactors (gas permeable culture bags) at concentrations of 1×10^4 cells/ml in MEM-alpha with 10% Fetal Calf Serum (FCS) containing 50 ng/ml of the following cytokines: SCF, TPO, Flt-3, IL-6, with (TEPA) or without (control) added copper chelator tetraethylenepentamine (TEPA, Aldrich, Milwaukee Wis., USA) (5 μM), and incubated for at least three weeks in a 5% CO2 humidified incubator. […] CFUc frequency was calculated as number of CFUc per number of cells.
Self-Renewal Potential Evaluations: The self-renewal potential of stem cells was determined in vitro by long-term colony formation. […] The resulting colonies were scored after two weeks of incubation at 37° C. in a humidified atmosphere of 5% CO2 in air. […]
Calculations: Ex vivo expansion of TNC, CD133, CD133+CD34− cells and CFUc are reported either as cumulative numbers; number of cells per ml multiply by the final culture volume, or as fold-expansion; cumulative numbers divided by initial seeding cell number. CFUc frequency is calculated as number of colonies divided by cell number. […]

[3] = tested on: Hematopoietic stem/progenitor cells isolated from umbilical cord blood; experiment: Ex vivo expansion of HSC with copper chelator in a gas permeable culture bag (static bioreactor); type: cell-based, human
Protocol: Hematopoietic stem/progenitor cells isolated from umbilical cord blood (UCB) mononuclear cells by magnetic activated cell sorting (MACS technology, Milteny, Bergisch-Gladbach, GmbH) were seeded in static bioreactors (gas permeable culture bags) at concentrations of 1×10^4 cells/ml in MEM-alpha with 10% Fetal Calf Serum (FCS) containing 50 ng/ml of the following cytokines: SCF, TPO, Flt-3, IL-6, with (TEPA) or without (control) added copper chelator tetraethylenepentamine (TEPA, Aldrich, Milwaukee Wis., USA) (5 μM), and incubated for at least three weeks in a 5% CO2 humidified incubator. […] Cell Cultures of Human Hematopoietic Stem/Progenitor Cells: Human umbilical cord blood cells were obtained from umbilical cord blood after normal full-term delivery (informed consent was given). MPB, or BM were obtained from donations (informed consent was given). Samples were either used fresh or collected and frozen according to well known cord blood cryopreservation protocol (Rubinstein et al. 1995) within 24 h postpartum for UCB or according to common practice regarding MPB and BM. Prior to cryopreservation, blood was sedimented for 30 minutes on […] Starch (hydroxyethyl starch) to remove most RBC. Prior to their use, the cells were thawed in Dextran buffer (Sigma, St. Louis, Mo., USA) containing 2.5% human serum albumin (HSA) (Bayer Corp. Elkhart, Ind., USA) and processed as described herein below. Following thawing, where indicated, the leukocyte-rich fraction was harvested and layered on Ficoll-Hypaque gradient (1.077 g/mL; Sigma Inc, St Louis Mo., USA), and centrifuged at 400X g for 30 minutes. The mononuclear cell fraction in the interface layer was then collected, washed three times, and re-suspended in phosphate-buffered saline (PBS) (Biological Industries, Bet HaEmek, Israel) containing 0.5% human serum albumin (HSA) (Bayer Corp. Elkhart, Ind., USA). The CD133^+ cell fraction was purified as follows: Either the mononuclear cell fraction was subjected to two cycles of immuno-magnetic separation using the “MiniMACS CD133 stem cell isolation kit” (Miltenyi Biotec, Auburn, Calif.) or the unfractionated preparation was isolated on the CliniMACS device using CD133^+ CliniMACS (Miltenyi Biotec, Auburn, Calif.) reagent, accordingly, following the manufacturer's recommendations (in the latter, the Ficoll-Hypaque gradient stage was omitted). The purity of the CD133^+ population thus obtained was 80-95%, as evaluated by flow cytometry. […]

[4] = static bioreactor (VueLife FEP Teflon bag), compared with cells cultured without TEPA

## NCCNCCNCCNCCN [TEPA, tetraethylenepentamine]
[1]
  fraction of CD34+ cell: greatly enhanced
  long-term clonability: greatly enhanced
[2]; 5 μM TEPA vs control cells grown with cytokines but not TEPA
  LTC-CFC numbers (colonogenic potential, CFUs): at least one order of magnitude; also recorded: predominance of CFUs
[2]; [4]
  functional characteristics (colonogenic potential): superior
[3]; 5 μM TEPA, three weeks, static bioreactor (culture bag), vs cytokines without TEPA
  fold expansion of immature subpopulations of HSC (CD34+/CD38− and CD34+/lin−): dramatically increases; also recorded: predominance of undifferentiated CD34^+/CD38^− and CD34^+/lin^−
[3]; short and long term culture in a static bioreactor, compared with cytokine-only cultures
  fraction of self-renewing, undifferentiated cells: dramatically increased
[3]; [4]
  population of ex-vivo cultured stem and/or progenitor cells: greatly expanded
